Results: US8067382B2, “Anthelmintic composition” (Merial Limited, priority 2002, dated 2011)

Legend:
[1] = Stability trial of Formulation 1 stored at ambient for 11 months, HPLC assay of actives; type: physicochemical
Protocol: A stability trial was conducted to ensure that the triclabendazole solution was stable. A formulation made as described in example 1 (“Formulation 1”) was stored at ambient for 11 months. At the conclusion of the storage period samples were tested for total abamectin and triclabendazole levels. [table]

liver flukes = settings: background statement; cited from earlier work
[2] = background statement; cited from earlier work

Molecule	Loss in activity after storage [1]	Efficacy against liver flukes by life cycle stage (liver flukes)	Solubility [2]	Physical stability of the solution after storage [1]
Abamectin	no loss in activity			
CCCSc1ccc2nc(NC(=O)OC)[nH]c2c1 [Albendazole]		only effective against adult flukes		
CSc1nc2cc(Cl)c(Oc3cccc(Cl)c3Cl)cc2[nH]1 [triclabendazole, 5-Chloro-6-(2,3-dichlorophenoxy)-2-methylthio-1H-benzimidazole]	no loss in activity	highly effective against liver flukes at all stages of their life cycle	highly insoluble	remained in solution
